These are literature values, as cited in PubChem BioAssay AID1259409 (Chemical Carcinogenesis Research Information System (CCRIS), 2018).

This series has as its system rodent chemically induced tumor inhibition, incidence and multiplicity. The series is described as follows: CCRIS tumor inhibitor studies.

For `S=C=Nc1ccccc1`, the “tumour outcome (control, treated, inhibition, significance)” value runs as follows: (Carcinogen: 4-(METHYLNITROSAMINO)-1-(3-PYRIDYL)-1-BUTANONE, 64091-91-4, Dose [Inhibitor]: 0, 5 UMOL 1/D FOR 4 D ADMINISTERED PRIOR TO CARCINOGEN DOSE (STUDY DURATION: 116 D), Route [Inhibitor]: GAVAGE, Species: MOUSE, Strain/Sex: STRAIN-A, Target Tissue: Type of Lesion: LUNG: ADENOMA, Dose [Carcinogen]: 10 UMOL IN SALINE ADMINISTERED 2 HR POST LAST AGENT DOSE, Promoter: NONE USED) 100%, 100%, 0%; (Carcinogen: 4-(METHYLNITROSAMINO)-1-(3-PYRIDYL)-1-BUTANONE, 64091-91-4, Dose [Inhibitor]: 0, 5 UMOL 1/D FOR 4 D ADMINISTERED PRIOR TO CARCINOGEN TREATMENT (STUDY DURATION: 116 D), Route [Inhibitor]: GAVAGE, Species: MOUSE, Strain/Sex: STRAIN A, Target Tissue: Type of Lesion: LUNG: ADENOMA, Dose [Carcinogen]: 10 UMOL ONCE, 2 HR AFTER FINAL DOSE OF INHIBITOR, Promoter: NONE USED) 100%, 100%, 0%, not significant; (Carcinogen: 4-(METHYLNITROSAMINO)-1-(3-PYRIDYL)-1-BUTANONE, 64091-91-4, Dose [Inhibitor]: 0, 5 UMOL/D FOR 4 CONSECUTIVE DAYS (STUDY DURATION: 17 WK), Route [Inhibitor]: GAVAGE, Species: MOUSE, Strain/Sex: STRAIN-A/FEMALE, Target Tissue: Type of Lesion: LUNG: ADENOMA, Dose [Carcinogen]: 10 UMOL ONCE 2 HR POST LAST AGENT DOSE, Promoter: NONE USED) 100%, 100%, 0%, not significant; (Carcinogen: 4-(METHYLNITROSAMINO)-1-(3-PYRIDYL)-1-BUTANONE, 64091-91-4, Dose [Inhibitor]: 5 UMOL/D FOR 4 CONSECUTIVE DAYS (STUDY DURATION: 16 WK), Route [Inhibitor]: GAVAGE, Species: MOUSE, Strain/Sex: STRAIN-A/FEMALE, Target Tissue: Type of Lesion: LUNG: ADENOMA, Dose [Carcinogen]: 10 UMOL ONCE 2 HR POST LAST AGENT DOSE, Promoter: NONE USED) 30/30 (100%), 30/30 (100%), 0%; (Carcinogen: 4-(N-NITROSOMETHYLAMINO)-1-(3-PYRIDYL)-1-BUTANONE, 64091-91-4, Dose [Inhibitor]: 0, 5 UMOL/D FOR 4 CONSECUTIVE DAYS (STUDY DURATION: 16.5 WK), Route [Inhibitor]: GAVAGE, Species: MOUSE, Strain/Sex: STRAIN-A/FEMALE, Target Tissue: Type of Lesion: LUNG: ADENOMA, Dose [Carcinogen]: 10 UMOL ONCE 2 HR POST LAST AGENT DOSE, Promoter: NONE USED) 100%, 100%, 0%, not significant; (Carcinogen: 7,12-DIMETHYLBENZ[A]ANTHRACENE, 57-97-6, Dose [Inhibitor]: 23 MG ONCE 4 HR PRIOR TO CARCINOGEN DOSE (STUDY DURATION: 18 WK), Route [Inhibitor]: INTRAGASTRIC, Species: RAT, Strain/Sex: SPRAGUE-DAWLEY/FEMALE, Target Tissue: Type of Lesion: MAMMARY GLAND: TUMOR, Dose [Carcinogen]: 12 MG IN 1 ML OLIVE OIL AT AGE 7 WK, Promoter: NONE USED) 86%, 46%, 46%, p<0.05.

Consider `CN(C)C(=O)COC(=O)Cc1ccc(OC(=O)c2ccc(N=C(N)N)cc2)cc1`, for which the “tumour outcome (control, treated, inhibition, significance)” value (Carcinogen: N-NITROSOBIS(2-OXOPROPYL)AMINE, 60599-38-4, Dose [Inhibitor]: 0, 500 PPM IN DIET FOR 5 WK DURING CARCINOGEN TREATMENT (STUDY DURATION: 30 WK), Route [Inhibitor]: ORAL, Species: HAMSTER, Strain/Sex: SYRIAN/FEMALE, Target Tissue: Type of Lesion: PANCREAS: ADENOCARCINOMA, Dose [Carcinogen]: 10 MG/KG 1/WK FOR 5 WK, Promoter: NONE USED) is given as 24/30 (80%), 18/32 (56%), 30%, p<0.05.

Turning to `O=C1O[C@@H]2[C@@H](O)CO[C@]2(O)[C@@]1(O)Cc1c[nH]c2ccccc12`, the “tumour outcome (control, treated, inhibition, significance)” value (Carcinogen: 7,12-DIMETHYLBENZ[A]ANTHRACENE [57-97-6], Dose [Inhibitor]: 0, 16 MG IN 0.5 ML DMSO 1X/D FOR 3 D BEGINNING 2 D PRIOR TO CARCINOGEN DOSE (STUDY DURATION: 93 D), Route [Inhibitor]: GAVAGE, Species: RAT, Strain/Sex: SPRAGUE-DAWLEY/FEMALE, Target Tissue: Type of Lesion: MAMMARY GLAND: TUMOR, Dose [Carcinogen]: 15 MG IN 0.5 ML DMSO TOGETHER WITH THE LAST DOES OF INHIBITOR (STUDY DURATION: 93 D), Promoter: NONE) is on record as 63%, 60%, 5%, not significant; the “tumour outcome (control, treated, inhibition, significance)” value (Carcinogen: 7,12-DIMETHYLBENZ[A]ANTHRACENE [57-97-6], Dose [Inhibitor]: 0, 32.5 MG IN 0.5 ML DMSO 1X/D FOR 3 D BEGINNING 2 D PRIOR TO CARCINOGEN DOSE (STUDY DURATION: 93 D), Route [Inhibitor]: GAVAGE, Species: RAT, Strain/Sex: SPRAGUE-DAWLEY/FEMALE, Target Tissue: Type of Lesion: MAMMARY GLAND: TUMOR, Dose [Carcinogen]: 15 MG IN 0.5 ML DMSO TOGETHER WITH THE LAST DOES OF INHIBITOR (STUDY DURATION: 93 D), Promoter: NONE) is 63%, 33%, 48%, p<0.05; the “tumour outcome (control, treated, inhibition, significance)” value (Carcinogen: 7,12-DIMETHYLBENZ[A]ANTHRACENE [57-97-6], Dose [Inhibitor]: 0, 65 MG IN 0.5 ML DMSO 1X/D FOR 3 D BEGINNING 2 D PRIOR TO CARCINOGEN DOSE (STUDY DURATION: 93 D), Route [Inhibitor]: GAVAGE, Species: RAT, Strain/Sex: SPRAGUE-DAWLEY/FEMALE, Target Tissue: Type of Lesion: MAMMARY GLAND: TUMOR, Dose [Carcinogen]: 15 MG IN 0.5 ML DMSO TOGETHER WITH THE LAST DOES OF INHIBITOR (STUDY DURATION: 93 D), Promoter: NONE) is on record as 63%, 39%, 38%, p<0.05.

Take `CC(C)c1cc(C(=O)O)c(O)c(C(C)C)c1`: the “tumour outcome (control, treated, inhibition, significance)” value (Carcinogen: BENZO[A]PYRENE, 50-32-8, Dose [Inhibitor]: 2000 NMOL IN 0.2 ML ACETONE APPLIED ONCE TO DORSAL SKIN 15 MIN PRIOR TO CARCINOGEN DOSE (STUDY DURATION: 20 WK), Route [Inhibitor]: DERMAL, Species: MOUSE, Strain/Sex: SENCAR/FEMALE, Target Tissue: Type of Lesion: SKIN: PAPILLOMA, Dose [Carcinogen]: 200 NMOL IN 0.2 ML ACETONE ONCE) is given as 97%, 96%, 0.3%, not significant.

Take `c1ccc2c(Cc3c[nH]c4ccccc34)c[nH]c2c1`: the “tumour outcome (control, treated, inhibition, significance)” value (Carcinogen: BENZO[A]PYRENE, 50-32-8, Dose [Inhibitor]: 0.02 MMOL/G DIET DAILY STARTING AT 63 D OF AGE (8 D PRIOR TO START OF CARCINOGEN TREATMENT) THROUGH 98 D OF AGE FOLLOWED, Route [Inhibitor]: ORAL, Species: MOUSE, Strain/Sex: ICR/FEMALE, Target Tissue: Type of Lesion: FORESTOMACH: TUMOR, Dose [Carcinogen]: 1 MG IN 0.2 ML CORN OIL ADMINISTERED 2/WK FOR 4 WK, Promoter: NONE USED) is given as 93%, 94%, -1%, not significant.

As for `CO[C@@]12[C@H](COC(N)=O)C3=C(C(=O)C(C)=C(N)C3=O)N1C[C@@H]1N[C@@H]12`, the “tumour outcome (control, treated, inhibition, significance)” value is reported as 14/20 (70%), 8/10 (80%), -14%, not calculated (Carcinogen: N-BUTYL-N-(4-HYDROXYBUTYL)NITROSAMINE, 3817-11-6, Dose [Inhibitor]: 0.5 ML (2000 UG/ML) INSTILLED TRANSURETHRALLY 2/WK FOR 2 WK POST CARCINOGEN DOSE (STUDY DURATION: 20 WK), Route [Inhibitor]: INTRAVESICAL, Species: RAT, Strain/Sex: WISTAR/MALE, Target Tissue: Type of Lesion: BLADDER: CARCINOMA, Dose [Carcinogen]: 0.05% IN DRINKING WATER FOR 12 WK, Promoter: NONE USED); 6/20 (30%), 2/10 (20%), 33%, not calculated (Carcinogen: N-BUTYL-N-(4-HYDROXYBUTYL)NITROSAMINE, 3817-11-6, Dose [Inhibitor]: 0.5 ML (2000 UG/ML) INSTILLED TRANSURETHRALLY 2/WK FOR 2 WK POST CARCINOGEN DOSE (STUDY DURATION: 20 WK), Route [Inhibitor]: INTRAVESICAL, Species: RAT, Strain/Sex: WISTAR/MALE, Target Tissue: Type of Lesion: BLADDER: PAPILLOMA, Dose [Carcinogen]: 0.05% IN DRINKING WATER FOR 12 WK, Promoter: NONE USED); 14/20 (70%), 2/10 (20%), 71%, not calculated (Carcinogen: N-BUTYL-N-(4-HYDROXYBUTYL)NITROSAMINE, 3817-11-6, Dose [Inhibitor]: 2000 UG/ML INSTILLED CONTINUOUSLY FOR 2 WK POST CARCINOGEN DOSE (STUDY DURATION: 12 WK), Route [Inhibitor]: INTRAVESICAL, Species: RAT, Strain/Sex: WISTAR/MALE, Target Tissue: Type of Lesion: BLADDER: CARCINOMA, Dose [Carcinogen]: 0.05% IN DRINKING WATER FOR 12 WK, Promoter: NONE USED); 6/20 (30%), 2/10 (20%), 33%, not calculated (Carcinogen: N-BUTYL-N-(4-HYDROXYBUTYL)NITROSAMINE, 3817-11-6, Dose [Inhibitor]: 2000 UG/ML INSTILLED CONTINUOUSLY FOR 2 WK POST CARCINOGEN DOSE (STUDY DURATION: 12 WK), Route [Inhibitor]: INTRAVESICAL, Species: RAT, Strain/Sex: WISTAR/MALE, Target Tissue: Type of Lesion: BLADDER: PAPILLOMA, Dose [Carcinogen]: 0.05% IN DRINKING WATER FOR 12 WK, Promoter: NONE USED).
